Target: T1, HMG-CoA reductase (Homo sapiens, UniProt P04035)
T1 construct: endogenous in cells; host or cells: HepG2 (Korea Cell Line Bank)
T1 sequence (P04035 1-888): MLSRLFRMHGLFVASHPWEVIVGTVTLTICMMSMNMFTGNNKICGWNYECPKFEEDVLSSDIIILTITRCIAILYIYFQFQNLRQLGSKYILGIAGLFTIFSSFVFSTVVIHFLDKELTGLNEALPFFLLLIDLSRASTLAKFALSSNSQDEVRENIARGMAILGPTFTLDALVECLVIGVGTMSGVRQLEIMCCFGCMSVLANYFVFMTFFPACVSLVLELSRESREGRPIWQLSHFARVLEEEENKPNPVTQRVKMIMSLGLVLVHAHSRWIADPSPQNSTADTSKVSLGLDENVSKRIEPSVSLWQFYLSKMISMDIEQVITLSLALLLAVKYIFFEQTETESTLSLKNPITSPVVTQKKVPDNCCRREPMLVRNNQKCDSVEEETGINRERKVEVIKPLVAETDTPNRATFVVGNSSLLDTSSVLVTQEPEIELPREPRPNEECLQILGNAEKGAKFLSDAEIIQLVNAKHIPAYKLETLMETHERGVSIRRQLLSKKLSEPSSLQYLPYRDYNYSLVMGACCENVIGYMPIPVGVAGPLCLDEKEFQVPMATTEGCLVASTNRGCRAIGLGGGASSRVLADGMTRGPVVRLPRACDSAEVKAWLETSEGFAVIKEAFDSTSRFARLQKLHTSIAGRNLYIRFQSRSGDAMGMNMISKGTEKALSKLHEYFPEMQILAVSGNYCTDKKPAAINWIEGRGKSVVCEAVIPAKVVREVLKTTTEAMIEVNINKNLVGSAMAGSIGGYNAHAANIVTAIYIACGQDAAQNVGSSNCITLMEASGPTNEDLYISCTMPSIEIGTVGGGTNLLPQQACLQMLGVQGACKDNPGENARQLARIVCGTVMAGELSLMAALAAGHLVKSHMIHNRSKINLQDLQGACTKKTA
Assay: HMG-CoA reductase (HMGCR) degradation in HepG2 cells by western blotting
Type: cell-based
Details: treated for 18 hours, ratio of HMG-CoA reductase to GAPDH, read-out: DC50
Method in brief: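 HepG2 cells (passage P105–P110) treated 18 hours with compounds in 10-point three-fold dilutions from 3 μM. RIPA lysates (15 μg protein, BCA-quantified) run on SDS-PAGE and immunoblotted for HMGCR (1:500) with GAPDH (1:20000) as loading control, primary antibodies 16 hours at 4° C.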

| DC50 | SMILES |
| --- | --- |
| > 500 nM | Cc1ncsc1-c1ccc(CNC(=O)[C@@H]2C[C@@H](O)CN2C(=O)[C@@H](NC(=O)CCCCCCCCCCNC(=O)O[C@H]2C[C@@H](C)C=C3C=C[C@H](C)[C@H](CC[C@@H](O)C[C@@H](O)CC(=O)O)[C@H]32)C(C)(C)C)cc1 [Compound 154, (3R,5R)-3,5-dihydroxy-7-((1S,2S,6R,8S,8aR)-8-(((11-(((S)-1-((2S,4R)-4-hydroxy-2-((4-(4-methylthiazol-5-yl)benzyl)carbamoyl)pyrrolidin-1-yl)-3,3-dimethyl-1-oxobutan-2-yl)amino)-11-oxoundecyl)carbamoyl)oxy)-2,6-dimethyl-1,2,6,7,8,8a-hexahydronaphthalen-1-yl)heptanoic acid] |
| < 50 nM | C[C@H]1C=C2C=C[C@H](C)[C@H](CC[C@@H]3C[C@@H](O[Si](C)(C)C(C)(C)C)CC(=O)O3)[C@H]2[C@@H](OC(=O)NCCOCCOCCNc2cccc3nnn(C4CCC(=O)NC4=O)c(=O)c23)C1 (stereo partly drawn) [Compound 155, (1S,3R,7S,8S,8aR)-8-(2-((2R,4R)-4-((tert-butyldimethylsilyl)oxy)-6-oxotetrahydro-2H-pyran-2-yl)ethyl)-3,7-dimethyl-1,2,3,7,8,8a-hexahydronaphthalen-1-yl (2-(2-(2-((3-(2,6-dioxopiperidin-3-yl)-4-oxo-3,4-dihydrobenzo[d][1,2,3]triazin-5-yl)amino)ethoxy)ethoxy)ethyl)carbamate] |
| < 50 nM | C[C@H]1C=C2C=C[C@H](C)[C@H](CC[C@@H]3C[C@@H](O)CC(=O)O3)[C@H]2[C@@H](OC(=O)NCCOCCOCCNc2cccc3nnn(C4CCC(=O)NC4=O)c(=O)c23)C1 (stereo partly drawn) [Compound 156, (1S,3R,7S,8S,8aR)-8-(2-((2R,4R)-4-hydroxy-6-oxotetrahydro-2H-pyran-2-yl)ethyl)-3,7-dimethyl-1,2,3,7,8,8a-hexahydronaphthalen-1-yl (2-(2-(2-((3-(2,6-dioxopiperidin-3-yl)-4-oxo-3,4-dihydrobenzo[d][1,2,3]triazin-5-yl)amino)ethoxy)ethoxy)ethyl)carbamate] |
| < 50 nM | C[C@H]1C=C2C=C[C@H](C)[C@H](CC[C@@H]3C[C@@H](O)CC(=O)O3)[C@H]2[C@@H](OC(=O)NCCCOCCOCCOCCCNc2cccc3c2C(=O)N(C2CCC(=O)NC2=O)C3=O)C1 (stereo partly drawn) [Compound 157, (1S,3R,7S,8S,8aR)-8-(2-((2R,4R)-4-hydroxy-6-oxotetrahydro-2H-pyran-2-yl)ethyl)-3,7-dimethyl-1,2,3,7,8,8a-hexahydronaphthalen-1-yl (3-(2-(2-(3-((2-(2,6-dioxopiperidin-3-yl)-1,3-dioxoisoindolin-4-yl)amino)propoxy)ethoxy)ethoxy)propyl)carbamate] |
| < 50 nM | Cc1ncsc1-c1ccc(CNC(=O)[C@@H]2C[C@@H](O)CN2C(=O)[C@@H](NC(=O)CCCCCCCNC(=O)O[C@H]2C[C@@H](C)C=C3C=C[C@H](C)[C@H](CC[C@@H]4C[C@@H](O)CC(=O)O4)[C@H]32)C(C)(C)C)cc1 [Compound 158, (1S,3R,7S,8S,8aR)-8-(2-((2R,4R)-4-hydroxy-6-oxotetrahydro-2H-pyran-2-yl)ethyl)-3,7-dimethyl-1,2,3,7,8,8a-hexahydronaphthalen-1-yl (8-(((S)-1-((2S,4R)-4-hydroxy-2-((4-(4-methylthiazol-5-yl)benzyl)carbamoyl)pyrrolidin-1-yl)-3,3-dimethyl-1-oxobutan-2-yl)amino)-8-oxooctyl)carbamate] |
| < 50 nM | Cc1ncsc1-c1ccc(CNC(=O)[C@@H]2C[C@@H](O)CN2C(=O)[C@@H](NC(=O)CCCCCCCCCCNC(=O)O[C@H]2C[C@@H](C)C=C3C=C[C@H](C)[C@H](CC[C@@H]4C[C@@H](O)CC(=O)O4)[C@H]32)C(C)(C)C)cc1 [Compound 160, (1S,3R,7S,8S,8aR)-8-(2-((2R,4R)-4-hydroxy-6-oxotetrahydro-21H-pyran-2-yl)ethyl)-3,7-dimethyl-1,2,3,7,8,8a-hexahydronaphthalen-1-yl (11-(((S)-1-((2S,4R)-4-hydroxy-2-((4-(4-methylthiazol-5-yl)benzyl)carbamoyl)pyrrolidin-1-yl)-3,3-dimethyl-1-oxobutan-2-yl)amino)-11-oxoundecyl)carbamate] |
| < 50 nM | Cc1ncsc1-c1ccc(CNC(=O)[C@@H]2C[C@@H](O)CN2C(=O)[C@@H](NC(=O)CCCc2cn(CCCCNC(=O)O[C@H]3C[C@@H](C)C=C4C=C[C@H](C)[C@H](CC[C@@H]5C[C@@H](O)CC(=O)O5)[C@H]43)nn2)C(C)(C)C)cc1 [Compound 161, (1S,3R,7S,8S,8aR)-8-(2-((2R,4R)-4-hydroxy-6-oxotetrahydro-2H-pyran-2-yl)ethyl)-3,7-dimethyl-1,2,3,7,8,8a-hexahydronaphthalen-1-yl (4-(4-(4-(((S)-1-((2S,4R)-4-hydroxy-2-((4-(4-methylthiazol-5-yl)benzyl)carbamoyl)pyrrolidin-1-yl)-3,3-dimethyl-1-oxobutan-2-yl)amino)-4-oxobutyl)-1H-1,2,3-triazol-1-yl)butyl)carbamate] |
| < 50 nM | Cc1ncsc1-c1ccc(CNC(=O)[C@@H]2C[C@@H](O)CN2C(=O)[C@@H](NC(=O)CCCN2CCC(CCCNC(=O)O[C@@H]3C[C@H](C)C=C4C=C[C@@H](C)[C@@H](CC[C@H]5C[C@H](O)CC(=O)O5)[C@@H]43)CC2)C(C)(C)C)cc1 [Compound 162, (1R,3S,7R,8R,8aS)-8-(2-((2S,4S)-4-hydroxy-6-oxotetrahydro-2H-pyran-2-yl)ethyl)-3,7-dimethyl-1,2,3,7,8,8a-hexahydronaphthalen-1-yl (3-(1-(4-(((S)-1-((2S,4R)-4-hydroxy-2-((4-(4-methylthiazol-5-yl)benzyl)carbamoyl)pyrrolidin-1-yl)-3,3-dimethyl-1-oxobutan-2-yl)amino)-4-oxobutyl)piperidin-4-yl)propyl)carbamate] |
| < 50 nM | Cc1ncsc1-c1ccc(CNC(=O)[C@@H]2C[C@@H](O)CN2C(=O)[C@@H](NC(=O)C2(F)CC2)C(C)(C)C)c(OCCCCCCCCNC(=O)O[C@H]2C[C@@H](C)C=C3C=C[C@H](C)[C@H](CC[C@@H]4C[C@@H](O)CC(=O)O4)[C@H]32)c1 [Compound 165, (1S,3R,7S,8S,8aR)-8-(2-((2R,4R)-4-hydroxy-6-oxotetrahydro-2H-pyran-2-yl)ethyl)-3,7-dimethyl-1,2,3,7,8,8a-hexahydronaphthalen-1-yl (8-(2-(((2S,4R)-1-((S)-2-(1-fluorocyclopropane-1-carboxamido)-3,3-dimethylbutanoyl)-4-hydroxypyrrolidine-2-carboxamido)methyl)-5-(4-methylthiazol-5-yl)phenoxy)octyl)carbamate] |
| < 50 nM | Cc1ncsc1-c1ccc(CNC(=O)[C@@H]2C[C@@H](O)CN2C(=O)[C@@H](NC(=O)C2(F)CC2)C(C)(C)C)c(OCCCCCCCCCNC(=O)O[C@H]2C[C@@H](C)C=C3C=C[C@H](C)[C@H](CC[C@@H]4C[C@@H](O)CC(=O)O4)[C@H]32)c1 [Compound 166, (1S,3R,7S,8S,8aR)-8-(2-((2R,4R)-4-hydroxy-6-oxotetrahydro-2H-pyran-2-yl)ethyl)-3,7-dimethyl-1,2,3,7,8,8a-hexahydronaphthalen-1-yl (9-(2-(((2S,4R)-1-((S)-2-(1-fluorocyclopropane-1-carboxamido)-3,3-dimethylbutanoyl)-4-hydroxypyrrolidine-2-carboxamido)methyl)-5-(4-methylthiazol-5-yl)phenoxy)nonyl)carbamate] |
| < 50 nM | Cc1ncsc1-c1ccc(CNC(=O)[C@@H]2C[C@@H](O)CN2C(=O)[C@@H](NC(=O)C2(F)CC2)C(C)(C)C)c(OCCCCCCCCCCNC(=O)O[C@H]2C[C@@H](C)C=C3C=C[C@H](C)[C@H](CC[C@@H]4C[C@@H](O)CC(=O)O4)[C@H]32)c1 [Compound 167, (1S,3R,7S,8S,8aR)-8-(2-((2R,4R)-4-hydroxy-6-oxotetrahydro-2H-pyran-2-yl)ethyl)-3,7-dimethyl-1,2,3,7,8,8a-hexahydronaphthalen-1-yl (10-(2-(((2S,4R)-1-((S)-2-(1-fluorocyclopropane-1-carboxamido)-3,3-dimethylbutanoyl)-4-hydroxypyrrolidine-2-carboxamido)methyl)-5-(4-methylthiazol-5-yl)phenoxy)decyl)carbamate] |

Reference: patent publication US12479840B2, “HMG-CoA reductase degradation inducing compound” (Uppthera, priority 2020, dated 2025)
